From US10968183B2, “Small molecule FIEL1 inhibitor in inflammatory and fibrotic lung injury” (UNIVERSITY OF PITTSBURGH—OF THE COMMONWEALTH SYSTEM OF …, priority 2015, dated 2021)

Tests used:
KIAA0317 and PIAS4 mRNA = test: PIAS4 and KIAA0317 mRNA analysis (RT-qPCR); assay type: cell-based; conditions: treatment for 18 h; FIG. 15G
Method: (§1) FIG. 15A. Diagram of the BC-1485 synthesis process. FIGS. 15B-15C. Docking studies of the lead compound, BC-1485, interacting with the FIEL1-HECT domain. FIG. 15D. MRC5 cells were treated with the compound at various doses; cells were also co-treated with TGFβ at 2 ng/ml. 18 h later, cells were collected and assayed for α-SMA expression. FIG. 15E. MRC5 cells were seeded in 35 mm glass bottom dishes before co-treatment with TGFβ at 2 ng/ml and BC-1480 or BC1485 at 5μM. FIG. 15F. PIAS4 protein half-life determination after BC-1480 or BC1485 treatment at 5μM for 18 h. FIG. 15G. PIAS4 and KIAA0317 mRNA analysis after BC1485 treatment for 18 h.
Total RNA was isolated and reverse transcription was performed followed by real-time quantitative PCR with SYBR Green qPCR mixture as described in Butler et al. J. Biol. Chem. 2010, […]: 6246-6258. All mutant PIAS4 and KIAA0317 plasmid constructs were generated using PCR-based approaches and appropriate primers and subcloned into a pcDNA3.1D/V5-HIS vector.

[1] = system: DSS induced acute colonic inflammation in C57BL6 mice; test: Dextran sulfate sodium induced acute colonic inflammation in mice; assay type: in vivo; conditions: 2.5% DSS in water up to 7 days; drinking water 30 ug/ml, ~5 mg/kg/d
Method: C57BL6 mice were fed with water ad lib containing 2.5% dextran sulfate sodium (DSS) for up to 7 days. Mice were treated with either vehicle (control) or BC-1261 (administered into drinking water at 30 ug/ml, ˜5 mg/kg/d dosing). Colonic tissues were also analysed for TNFα, IL1 and IL6 shown in FIGS. 20E H&E staining was performed on colonic sections. The data in FIG. 20F represent n=6 mice/group, *P<0.05 versus DSS and **P<0.05 versus control. […] FIG. 20G provides pictures of the tissues at interest.
C57BL6 mice were fed with water ad lib containing 2.5% dextran sulfate sodium (DSS) for up to 7 days. Mice were treated with either vehicle (control) or BC-1261 (administered into drinking water at 30 ug/ml, ˜5 mg/kg/d dosing). Mice were then euthanized, the length of the colon and weight of the spleen were measured and graphed, shown in FIG. 20 B-D. Colonic tissues were also analysed for TNFα, IL1 and IL6 shown in FIG. 20E H&E staining was performed on colonic sections. The data in FIG. 20F represent n=6 mice/group, *P<0.05 versus DSS and **P<0.05 versus control.

[2] = system: α-SMA expression in MRC5 cells; test: α-SMA expression in MRC5 cells co-treated with TGFβ; assay type: cell-based, human
Method: as §1
MLE cells were cultured in Dulbecco's Modified Eagle Medium-F12 (Gibco) supplemented with 10% fetal bovine serum (DMEM-10). 293T cells were cultured in Dulbecco's Modified Eagle Medium (Gibco) supplemented with 10% fetal bovine serum (DMEM-10). MRC5 cells were cultured in Eagle's Minimum Essential Medium (Gibco) supplemented with 10% fetal bovine serum (EMEM-10). For protein expression in MLE cells, nucleofection was used following Amaxa's protocol. For protein overexpression in 293T cells, Fugene6HD transfection reagents were used following the manufacturer's protocol. For protein expression in MRC5 cells, MRC-5 Cell Avalanche™ Transfection Reagent was used following manufacturer's protocol. Cells were treated with TGFβ at 0-2 ng/ml for 0-18 h. For FIEL1, PKCξ, or GSK3β knockdown studies in cells, scramble shRNA, KIAA0317, PKCξ, or GSK3β shRNA were used to transfect cells for 48 h. For drug treatment, compounds were solubilized in DMSO before being added to the cells for up to 18 h. Cell lysates were prepared by brief sonication in 150 mM NaCl, 50 mM Tris, 1.0 mM EDTA, 2 mM dithiothreitol, 0.025% sodium azide, and 1 mM phenylmethylsulfonyl fluoride (Buffer A) at 4° C. For half-life study, MLE cells were exposed to cycloheximide (40 μg/ml) in a time dependent manner for up to 8 h. Cells were then collected and immunoblotted.

PIAS4 = PIAS4 protein half-life study (cycloheximide) in MLE cells; assay type: cell-based, murine; conditions: compound 5 μM for 18 h; FIG. 15F
Description: FIG. 9A. PIAS4 protein half-life study in MLE cells transfected with Empty plasmid or Ubiquitin plasmid. FIG. 9B. PIAS4 protein half-life study with MG132 or Leupeptin. FIG. 9C. Immunoblots showing levels of PIAS4 proteins and V5 after ectopic FIEL1 or UBE3B plasmid expression. FIG. 9D. Immunoblots showing levels of FIEL1 proteins after ectopic FIEL1 plasmid expression in MLE, HeLa, and 293T cells. FIG. 9E. Immunoblots showing levels of PIAS4 proteins and V5 after ectopic FIEL1 plasmid expression in HeLa and 293T cells. FIG. 9F. MLE cells were transfected with an inducible control or FIEL1 plasmid under control of exogenous doxycycline. Cells were treated with doxycycline in a dose dependent manner. Cells were then collected and cell lysates were immunoblotted for FIEL1 and PIAS4. FIG. 9G. MRC5 cells were exposed to TGFβ for 24 h before being assayed for PIAS4 and FIEL1 protein half-lives.
as §1
MLE cells were cultured in Dulbecco's Modified Eagle Medium-F12 (Gibco) supplemented with 10% fetal bovine serum (DMEM-10). 293T cells were cultured in Dulbecco's Modified Eagle Medium (Gibco) supplemented with 10% fetal bovine serum (DMEM-10). MRC5 cells were cultured in Eagle's Minimum Essential Medium (Gibco) supplemented with 10% fetal bovine serum (EMEM-10). For protein expression in MLE cells, nucleofection was used following Amaxa's protocol. For protein overexpression in 293T cells, Fugene6HD transfection reagents were used following the manufacturer's protocol. […]

## CC(NC(=O)c1ccc(NS(=O)(=O)c2ccc3[nH]c(=O)[nH]c3c2)cc1)C(=O)N(C)C (stereo not drawn) [BC-1485]
KIAA0317 and PIAS4 mRNA
  KIAA0317 mRNA levels: did not significantly alter
  PIAS4 mRNA levels: did not significantly alter
[1]
  DSS induced acute colonic inflammation: effectively reduces
[2]; FIG. 15
  inhibition of TGFβ pathway: inhibition of TGFβ pathway
[2]; MRC5 cells, TGFβ 2 ng/ml, 18 h, FIG. 15D, read-out: IC50 for decrease of α-SMA expression
  IC50: ~32 nM
PIAS4
  PIAS4 protein half-life: stabilized PIAS4 by extending its half-life
